Series [1] has as its target T1, A2 receptor (Homo sapiens, UniProt P29274).
T1 construct: human platetlet membranes; from tissue; host or cells: human platelet membranes
The series can be described thus: antagonism of NECA-induced stimulation of adenylate cyclase activity in human platelet membranes. Type of series: biochemical. The note with it: antagonism of NECA-stimulated adenylate cyclase, human platelet membranes; means with 95% confidence limits from 3 experiments; read-out: A2 receptor KB. How it is done:
Measurements of the potencies of the xanthines as antagonists of NECA-induced stimulation of adenylate cyclase activity in human platetlet membranes and as inhibitors of [^3 H]PIA binding to rat cerebral cortex membranes were carried out as reported previously.

Series [2] deals with A2 adenosine receptors. In words: reversal of 2-chloroadenosine-stimulated cyclic AMP production in guinea pig brain slices. It counts as cell-based. The note with it: amino acid conjugates of 1a. An excerpt:
[…]. As modifications of these xanthines designed to increases A2 -potency we have explored changing the size of the 1,3-dialkyl groups and incorporating distal amino groups in the functionalized 8-phenyl moiety.

Series [3] in a line: solubility. Type of series: physicochemical.
The nature of series [4]: stability to enzymatic hydrolysis. It counts as in vitro ADME.
Series [5] relates to renin release. In words: renin release by the kidney. It counts as in vivo.
The subject of series [6] is adenosine receptors. The series can be described thus: adenosine agonist activity.
Series [7] has as its system blood brain barrier / central nervous system. In words: brain entry / central side effects.

T1 sequence (P29274 whole entry): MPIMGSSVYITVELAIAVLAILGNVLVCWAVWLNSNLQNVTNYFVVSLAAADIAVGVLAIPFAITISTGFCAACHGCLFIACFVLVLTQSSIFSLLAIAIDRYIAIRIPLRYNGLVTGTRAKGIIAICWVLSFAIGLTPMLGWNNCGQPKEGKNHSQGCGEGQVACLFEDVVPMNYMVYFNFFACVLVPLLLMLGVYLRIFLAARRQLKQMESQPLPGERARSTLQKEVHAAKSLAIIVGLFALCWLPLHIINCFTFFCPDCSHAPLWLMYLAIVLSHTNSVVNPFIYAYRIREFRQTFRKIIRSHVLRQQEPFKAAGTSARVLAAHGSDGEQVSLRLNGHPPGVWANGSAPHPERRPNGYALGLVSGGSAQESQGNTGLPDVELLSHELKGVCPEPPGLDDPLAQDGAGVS

As usually defined, the Kb is the affinity of an antagonist, worked out from how it opposes an agonist. Turning to `CCCn1c(=O)c2[nH]c(-c3ccc(OCC(=O)NCCNC(=O)[C@H](N)CCCCN)cc3)nc2n(CCC)c1=O` [Compound 61c], in series [1], the Kb stood at 37 nM. Also, the “potency” value in series [2] was “high potency”. In addition, in series [3], the “water solubility” value is recorded as “high water solubility”. The “stability to enzymatic hydrolysis” value in series [4] is listed as “stability to enzymatic hydrolysis”.

Take `NCCNC(=O)Cc1ccc(NC(=O)Cc2ccc(Nc3ncnc4c3ncn4[C@@H]3O[C@H](CO)[C@@H](O)[C@H]3O)cc2)cc1` [Compound 1b]: the “renin release by the kidney” value in series [5] was “a decrease in renin release by the kidney”. Besides, the “adenosine agonist potency in vitro and in vivo” value in series [6] was “highly potent as an adenosine agonist in vitro and in vivo”. Further, the “entry into the brain / passage across the blood brain barrier” value in series [7] is listed as “excluded from passage across the blood brain barrier”.

Source of the values: patent US4968672A, “Adenosine receptor prodrugs” (priority 1987, dated 1990).
